Laboratory results taken from patent publication US6509318B1, “TGF-B inhibitors and methods” (The Regents of the University of California, priority 2000, dated 2003).
Non-standard residues stand in square brackets, D forms with d. No end group written: not given here.

Key:
[1] = tested on: mink lung epithelium MV-1-Lu cells; assay: DNA synthesis (3H-thymidine incorporation) in MV-1-Lu cells, additions alone; format: cell-based; conditions: for 3H-Thymidine Incorporation 10^3 d.p.m. ± S.D.: 24 h; for (+/−) % change over control with TGF β-1 / (+/−) % change over control when CITA is present: vs control (no additions); for decrease of DNA synthesis against the control: CITA alone, all concentrations examined (1, 10, 100 nM)
Source text: (§1) Inhibition of TGF β-1 Activity by CITAs: We have used a standardized in vitro assay for TGF β-1 as a test for the biological activity of CITAs. Our test is based on inhibiting the effect of TGF β-1 on a test cell proliferation system. In this assay, mink lung epithelium MV-1-Lu cells are exposed to TGF β-1. […] The decrease in DNA synthesis can be monitored by measuring the incorporation of labeled precursors in DNA. The incorporation of ^3H-thymidine in DNA in MV-1-Lu cells are used as a measure of cell proliferation. […] These concentrations of TGF β-1 were based on the amounts of TGF β-1 found in normal serum and in serum from patients with peritonitis, an inflammatory disease. The normal amount of TGF β-1 in human serum is approximately 2 nM (39 pG/ml). In patients with peritonitis, the amount increases to nearly 10 nM (169-216 pG/ml). The incorporation of ^3H-thymidine in the absence of TGF β-1 served as the control. To test the anti-TGF β-1 activity of CITAs, the cells were exposed to 1 nM, 10 nM, and 100 nM CITA-I, CITA-II, and CITA-III in the absence and in the presence of 5.0 nM and 10.0 nM TGF β-1.
(§2) Details of Experimental Procedures: 10^4 MV-1-Lu were plated in each well of a 12 well plate in 2.0 ml minimum essential medium containing non-essential amino acids (MEM) and 10% fetal bovine serum. After 24 hours, the medium was placed with serum free MEM and the cells were further cultured for two hours before the medium was placed with serum free MEM containing the test additives. After exposure to the test medium for 24 hours, the cells were pulse labeled for two hours with 0.5 μCi (methyl-^3H)-thymidine, (specific activity 60 Ci/mmol). After pulse labeling, the radioactive medium was removed, and the cells were washed 1× with 10% trichloracetic acid (TCA), 2× with 5% TCA, then 2× with phosphate buffered saline containing 50 μg/ml non-radioactive thymidine. The wash solutions were monitored to establish that no further unbound radioactive thymidine remained. The washed cell layers were dissolved in 1 ml 0.1 N NaOH containing 1% sodium dodecyl sulfate. The radioactivity in the solution was measured in a scintillation counter and expressed as disintegrations per minute (d.p.m.). Each test was carried out in quadruplicate, and the data presented as mean±standard deviation.

[2] = tested on: TGF β-1; assay: Inhibition of TGF β-1 activity by CITAs: reversal of TGF β-1 inhibition of DNA synthesis in MV-1-Lu cells; format: cell-based; conditions: for DNA synthesis restored, relative to the level seen with TGF β-1: MV-1-Lu cells exposed to 5 nM TGF β-1, all concentrations of CITAs; for reversal of the inhibition of DNA synthesis caused by TGF β-1 / 3H-Thymidine Incorporation 10^3 d.p.m. ± S.D.: MV-1-Lu cells; for reversal of the inhibition of DNA synthesis caused by TGF β-1: TGF β-1 5 nM and 10 nM; for 3H-Thymidine Incorporation 10^3 d.p.m. ± S.D.: 24 h; for (+/−) % change over control when CITA is present: vs control (no additions)
Source text: as §1, §2

[3] = CITA 1 nM alone, no TGF β-1, MV-1-Lu cells
[4] = CITA 10 nM alone, no TGF β-1, MV-1-Lu cells
[5] = CITA 100 nM alone, no TGF β-1, MV-1-Lu cells
[6] = TGF β-1 5 nM + CITA 1 nM, relative to TGF β-1 5 nM alone
[7] = TGF β-1 5 nM + CITA 10 nM, relative to TGF β-1 5 nM alone
[8] = TGF β-1 5 nM + CITA 100 nM, relative to TGF β-1 5 nM alone
[9] = TGF β-1 10 nM + CITA 1 nM, relative to TGF β-1 10 nM alone
[10] = TGF β-1 10 nM + CITA 10 nM, relative to TGF β-1 10 nM alone
[11] = TGF β-1 10 nM + CITA 100 nM, relative to TGF β-1 10 nM alone

Substance	3H-Thymidine Incorporation 10^3 d.p.m. ± S.D. [1, 3]	(+/−) % change over control when CITA is present ([1]; CITA 1 nM alone, no TGF β-1) [%]	3H-Thymidine Incorporation 10^3 d.p.m. ± S.D. [1, 4]	(+/−) % change over control when CITA is present ([1]; CITA 10 nM alone, no TGF β-1) [%]	3H-Thymidine Incorporation 10^3 d.p.m. ± S.D. [1, 5]	(+/−) % change over control when CITA is present ([1]; CITA 100 nM alone, no TGF β-1) [%]	decrease of DNA synthesis against the control [1]	DNA synthesis restored, relative to the level seen with TGF β-1 [2] [×]	reversal of the inhibition of DNA synthesis caused by TGF β-1 [2]	% Increase over TGF β-1. TGF β-1 + CITA/TGF β-1 × 100 [2, 6] [%]	3H-Thymidine Incorporation 10^3 d.p.m. ± S.D. ([2]; TGF β-1 5 nM + CITA 1 nM)	(+/−) % change over control when CITA is present ([2]; TGF β-1 5 nM + CITA 1 nM) [%]	% Increase over TGF β-1. TGF β-1 + CITA/TGF β-1 × 100 [2, 7] [%]	3H-Thymidine Incorporation 10^3 d.p.m. ± S.D. ([2]; TGF β-1 5 nM + CITA 10 nM)	(+/−) % change over control when CITA is present ([2]; TGF β-1 5 nM + CITA 10 nM) [%]	% Increase over TGF β-1. TGF β-1 + CITA/TGF β-1 × 100 [2, 8] [%]	3H-Thymidine Incorporation 10^3 d.p.m. ± S.D. ([2]; TGF β-1 5 nM + CITA 100 nM)	(+/−) % change over control when CITA is present ([2]; TGF β-1 5 nM + CITA 100 nM) [%]	% Increase over TGF β-1. TGF β-1 + CITA/TGF β-1 × 100 [2, 9] [%]	3H-Thymidine Incorporation 10^3 d.p.m. ± S.D. ([2]; TGF β-1 10 nM + CITA 1 nM)	also measured
TGF β-1: transforming growth factor β-1, growth factor protein used to inhibit DNA synthesis of MV-1-Lu cells																					3H-Thymidine Incorporation 10^3 d.p.m. ± S.D. ([1]; TGF β-1 5 nM alone, MV-1-Lu cells): 16.43 ± 2.95 10^3 d.p.m.; (+/−) % change over control with TGF β-1 ([1]; TGF β-1 5 nM alone): −72%; decrease of DNA synthesis ([1]; TGF β-1 5.0 nM, MV-1-Lu cells): approximately 70%; 3H-Thymidine Incorporation 10^3 d.p.m. ± S.D. ([1]; TGF β-1 10 nM alone, MV-1-Lu cells): 1.91 ± 0.08 10^3 d.p.m.; (+/−) % change over control with TGF β-1 ([1]; TGF β-1 10 nM alone): −97%; inhibition of DNA synthesis ([1]; TGF β-1 10 nM, MV-1-Lu cells): ~97%
Leu-Ile-Ala-Pro-D-Glu-Ala (LIAP[dE]A) [CITA-I]	46.46 ± 2.48 10^3 d.p.m.	−19	44.93 ± 3.34 10^3 d.p.m.	−21	45.10 ± 1.27 10^3 d.p.m.	−22	approximately 20%	2	markedly reversed the inhibition of DNA synthesis	250	41.05 ± 2.04 10^3 d.p.m.	−29	194	31.88 ± 2.32 10^3 d.p.m.	−45	181	29.70 ± 2.79 10^3 d.p.m.	−49	1113	21.26 ± 1.30 10^3 d.p.m.	(+/−) % change over control when CITA is present ([2]; TGF β-1 10 nM + CITA 1 nM): −63%; % Increase over TGF β-1. TGF β-1 + CITA/TGF β-1 × 100 [2, 10]: 1373%; 3H-Thymidine Incorporation 10^3 d.p.m. ± S.D. ([2]; TGF β-1 10 nM + CITA 10 nM): 26.23 ± 2.73 10^3 d.p.m.; (+/−) % change over control when CITA is present ([2]; TGF β-1 10 nM + CITA 10 nM): −55%; % Increase over TGF β-1. TGF β-1 + CITA/TGF β-1 × 100 [2, 11]: 906%; 3H-Thymidine Incorporation 10^3 d.p.m. ± S.D. ([2]; TGF β-1 10 nM + CITA 100 nM): 17.30 ± 2.19 10^3 d.p.m.; (+/−) % change over control when CITA is present ([2]; TGF β-1 10 nM + CITA 100 nM): −70%; increase in DNA synthesis in the inhibited cells ([2]; cells severely inhibited by 10 nM TGF β-1, all concentrations of CITA-I): over 10 fold
Phe-Ile-Ala-Pro-D-Glu-Ala (FIAP[dE]A) [CITA-II]	45.10 ± 1.27 10^3 d.p.m.	−22	42.03 ± 1.11 10^3 d.p.m.	−27	43.08 ± 1.23 10^3 d.p.m.	−25	approximately 20%	2	markedly reversed the inhibition of DNA synthesis	184	31.04 ± 1.07 10^3 d.p.m.	−29	169	27.75 ± 1.50 10^3 d.p.m.	−45	207	34.00 ± 0.86 10^3 d.p.m.	−49	970	18.51 ± 1.23 10^3 d.p.m.	(+/−) % change over control when CITA is present ([2]; TGF β-1 10 nM + CITA 1 nM): −63%; % Increase over TGF β-1. TGF β-1 + CITA/TGF β-1 × 100 [2, 10]: 1084%; 3H-Thymidine Incorporation 10^3 d.p.m. ± S.D. ([2]; TGF β-1 10 nM + CITA 10 nM): 20.70 ± 2.63 10^3 d.p.m.; (+/−) % change over control when CITA is present ([2]; TGF β-1 10 nM + CITA 10 nM): −55%; % Increase over TGF β-1. TGF β-1 + CITA/TGF β-1 × 100 [2, 11]: 981%; 3H-Thymidine Incorporation 10^3 d.p.m. ± S.D. ([2]; TGF β-1 10 nM + CITA 100 nM): 18.73 ± 1.67 10^3 d.p.m.; (+/−) % change over control when CITA is present ([2]; TGF β-1 10 nM + CITA 100 nM): −70%
Leu-Phe-Ala-Pro-D-Glu-Ala (LFAP[dE]A) [CITA-III]	44.67 ± 2.26 10^3 d.p.m.	−23	47.19 ± 3.00 10^3 d.p.m.	−18	44.36 ± 1.76 10^3 d.p.m.	−23	approximately 20%	2	markedly reversed the inhibition of DNA synthesis	207	34.00 ± 0.86 10^3 d.p.m.	−41	207	34.03 ± 1.11 10^3 d.p.m.	−41	184	30.23 ± 1.69 10^3 d.p.m.	−48	1275	24.36 ± 1.14 10^3 d.p.m.	(+/−) % change over control when CITA is present ([2]; TGF β-1 10 nM + CITA 1 nM): −58%; % Increase over TGF β-1. TGF β-1 + CITA/TGF β-1 × 100 [2, 10]: 997%; 3H-Thymidine Incorporation 10^3 d.p.m. ± S.D. ([2]; TGF β-1 10 nM + CITA 10 nM): 19.04 ± 1.47 10^3 d.p.m.; (+/−) % change over control when CITA is present ([2]; TGF β-1 10 nM + CITA 10 nM): −67%; % Increase over TGF β-1. TGF β-1 + CITA/TGF β-1 × 100 [2, 11]: 907%; 3H-Thymidine Incorporation 10^3 d.p.m. ± S.D. ([2]; TGF β-1 10 nM + CITA 100 nM): 17.32 ± 0.27 10^3 d.p.m.; (+/−) % change over control when CITA is present ([2]; TGF β-1 10 nM + CITA 100 nM): −70%
